Earlier results on one molecule are cited in patent publication US20250215008A1, “PREPARATION AND USE OF QUINAZOLINONE DERIVATIVE AS KINASE INHIBITOR” (Haisco Pharmaceutical Group Co., Ltd., priority 2022, published 2025).

One series has as its target MDR1 (Homo sapiens (Human), UniProt P08183). To be noted: cited from earlier work.
A further series has as its target BCRP (Homo sapiens (Human), UniProt Q9UNQ0). Particulars: cited from earlier work.
The conditions of series [1]: in vivo; cited from earlier work.

Chain of MDR1 (P08183 whole entry, species assumed): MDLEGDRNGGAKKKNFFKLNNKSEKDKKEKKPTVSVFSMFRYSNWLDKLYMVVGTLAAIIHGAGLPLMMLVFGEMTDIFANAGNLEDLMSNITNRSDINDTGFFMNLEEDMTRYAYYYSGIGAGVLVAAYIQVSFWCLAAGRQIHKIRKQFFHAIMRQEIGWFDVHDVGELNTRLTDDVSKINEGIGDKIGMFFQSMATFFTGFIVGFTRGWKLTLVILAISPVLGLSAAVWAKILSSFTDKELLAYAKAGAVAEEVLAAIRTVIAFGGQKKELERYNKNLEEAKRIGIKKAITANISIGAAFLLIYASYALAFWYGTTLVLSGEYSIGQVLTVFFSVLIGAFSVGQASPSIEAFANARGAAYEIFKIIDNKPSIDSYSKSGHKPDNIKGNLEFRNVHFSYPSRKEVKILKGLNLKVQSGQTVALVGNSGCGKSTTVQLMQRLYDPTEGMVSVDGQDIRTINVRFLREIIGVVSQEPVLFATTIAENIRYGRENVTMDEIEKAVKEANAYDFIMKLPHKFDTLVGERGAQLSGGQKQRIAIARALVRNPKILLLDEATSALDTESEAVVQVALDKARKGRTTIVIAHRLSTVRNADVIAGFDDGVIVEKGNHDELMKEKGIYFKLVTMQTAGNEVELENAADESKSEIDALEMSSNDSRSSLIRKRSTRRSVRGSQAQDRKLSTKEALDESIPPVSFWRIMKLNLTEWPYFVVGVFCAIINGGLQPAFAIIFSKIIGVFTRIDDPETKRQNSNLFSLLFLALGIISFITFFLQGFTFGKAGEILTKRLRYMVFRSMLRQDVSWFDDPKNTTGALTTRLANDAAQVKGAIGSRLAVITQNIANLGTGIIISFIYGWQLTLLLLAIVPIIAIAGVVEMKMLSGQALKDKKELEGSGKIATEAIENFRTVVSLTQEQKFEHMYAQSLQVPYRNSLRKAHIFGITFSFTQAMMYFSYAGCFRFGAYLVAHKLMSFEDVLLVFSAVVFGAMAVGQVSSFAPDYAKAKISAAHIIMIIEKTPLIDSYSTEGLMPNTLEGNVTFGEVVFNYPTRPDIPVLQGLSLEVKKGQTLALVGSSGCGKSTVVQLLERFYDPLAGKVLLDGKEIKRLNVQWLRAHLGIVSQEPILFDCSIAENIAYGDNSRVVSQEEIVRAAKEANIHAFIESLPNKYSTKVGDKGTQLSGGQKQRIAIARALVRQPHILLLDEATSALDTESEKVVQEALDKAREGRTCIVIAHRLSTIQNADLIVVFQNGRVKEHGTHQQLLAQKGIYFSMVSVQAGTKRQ
Chain of BCRP (Q9UNQ0 whole entry, species assumed): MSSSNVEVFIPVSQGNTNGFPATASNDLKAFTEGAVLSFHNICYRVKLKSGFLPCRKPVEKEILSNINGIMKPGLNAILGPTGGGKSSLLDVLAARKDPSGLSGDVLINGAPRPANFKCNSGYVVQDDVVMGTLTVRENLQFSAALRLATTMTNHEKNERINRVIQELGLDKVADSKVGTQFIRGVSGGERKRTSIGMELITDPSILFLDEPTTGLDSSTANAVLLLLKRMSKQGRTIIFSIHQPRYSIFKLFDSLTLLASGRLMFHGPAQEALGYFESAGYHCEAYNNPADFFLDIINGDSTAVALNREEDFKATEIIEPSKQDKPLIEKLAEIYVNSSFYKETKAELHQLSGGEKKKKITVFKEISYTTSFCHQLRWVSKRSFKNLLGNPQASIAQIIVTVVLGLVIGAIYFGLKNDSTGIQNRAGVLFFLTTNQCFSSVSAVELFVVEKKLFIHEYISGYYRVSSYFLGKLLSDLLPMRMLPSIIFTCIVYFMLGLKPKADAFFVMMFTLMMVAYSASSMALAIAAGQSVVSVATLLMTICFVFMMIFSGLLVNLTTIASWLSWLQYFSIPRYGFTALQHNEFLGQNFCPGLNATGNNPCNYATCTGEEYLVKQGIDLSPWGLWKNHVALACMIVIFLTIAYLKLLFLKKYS

Turning to `CCCS(=O)(=O)Nc1ccc(F)c(C(=O)c2c[nH]c3ncc(-c4ccc(Cl)cc4)cc23)c1F` [Vemurafenib], the MDR1 efflux ratio on MDR1 is on record as 83. Moreover, the BCRP efflux ratio on BCRP was 495. Further, in series [1], the total brain-to-plasma ratio was 0.004.
